Test results reported in paper PMC11062922 (Nature Chemical Biology, 2023).
Read-outs that look alike come from different tables or passages of the source.

Tests used:
[1] = target: PKN3 (Homo sapiens, UniProt Q6P5Z2); assay: Kinobeads two-dose competition binding: PKN3; parameters: endogenous in cells; details: for CATDSPKN3: selectivity score from Kinobeads two-dose data
From the text: Briefly, Kinobeads comprise seven broad-spectrum small molecule kinase inhibitors immobilized on Sepharose beads. […]. Compounds of interest are set to compete for target protein binding with Kinobeads in the lysate and the amount of a given protein bound to Kinobeads in the presence of a compound can be quantified relative to a dimethylsulfoxide (DMSO) vehicle control by label-free mass spectrometry. This assay measures the physical interaction of a compound with thousands of endogenous proteins in parallel and, when systematically increasing the concentration of competitor, enables the calculation of an apparent interaction constant ( Kdapp ) for each compound and protein.
Kinobeads pulldown experiments were performed as described previously[13],[14],[17] with minor modification. […] The protein concentration was adjusted to 5 mg ml^−1. Kinase inhibitors were spiked into 0.5 ml of cell lysate at final concentrations of 100 and 1,000 nM (or DMSO, 0.3, 1, 3, 10, 30, 100, 300 and 1,000 nM for full dose experiments). […] Lysates were incubated for 45 min at 4 °C. Subsequently, lysates were incubated with Kinobeads ε (17.5 µl of settled beads) for 30 min at 4 °C. To assess the degree of protein depletion from the lysates by Kinobeads, the flow through of the DMSO control was recovered for a pulldown of pulldown experiment where the lysate was incubated a second time with fresh Kinobeads. Beads were washed in three steps with buffer containing 0.4%, 0.2% and no IGEPAL. Bound proteins were reduced with 50 mM DTT in 8 M Urea, 40 mM Tris-HCl pH 7.4 for 30 min at room temperature. After alkylation with 55 mM chloroacetamide, the urea concentration was reduced to 1–2 M and proteins were digested with trypsin. Acidified peptides were desalted and concentrated using SepPak tC18 µEluation plates (Waters). Samples were frozen, dried by vacuum centrifugation and stored at −20 °C.
Each kinase inhibitor was processed together with all DMSO controls of the same plate. Additionally, each search was supplemented with five high quality DMSO controls for consistent peptide identification and protein grouping. The resultant file (proteinGroups.txt) was used for subsequent filtering, normalization, data visualization and target annotation that was automatically performed by a data processing pipeline built in house that used R (including the ‘drc’ and ‘heatmap’ packages). First, reverse hits, potential contaminants and not quantified proteins in the DMSO control samples were discarded. Protein raw and label-free quantification intensities were normalized to the median DMSO control intensity to obtain relative residual binding intensities for each protein group at every inhibitor concentration and standard deviations of the DMSO control intensity were calculated. IC50 values were estimated based on the following equation IC50=I×100−inhibition/inhibition where [I] is the inhibitor concentration that was used for IC50 calculation and ‘inhibition’ the relative residual binding intensity. […]. Estimated Kdapp values were then calculated by multiplying the estimated IC50 values with a protein-dependent correction factor that was limited to a maximum value of one. The correction factor accounts for the depletion of a target protein from the lysate by Kinobeads. The depletion can be measured by the ratio of the amount of protein captured in two consecutive pulldowns of the same DMSO control lysate. In this study, correction factors were determined in separate experiments using the same lysate mixture and the same bead batch. Correction factors were set to the median of all correction factors. Targets of kinase inhibitors were annotated using the previously published random forest classifier. A training data set was annotated manually. […]

[2] = target: T1, AKT3 (Homo sapiens, UniProt Q9Y243); assay: Kinobeads competition binding: AKT3; details: target AKT3
T1 construct: endogenous in cells
T1 sequence (Q9Y243 whole entry): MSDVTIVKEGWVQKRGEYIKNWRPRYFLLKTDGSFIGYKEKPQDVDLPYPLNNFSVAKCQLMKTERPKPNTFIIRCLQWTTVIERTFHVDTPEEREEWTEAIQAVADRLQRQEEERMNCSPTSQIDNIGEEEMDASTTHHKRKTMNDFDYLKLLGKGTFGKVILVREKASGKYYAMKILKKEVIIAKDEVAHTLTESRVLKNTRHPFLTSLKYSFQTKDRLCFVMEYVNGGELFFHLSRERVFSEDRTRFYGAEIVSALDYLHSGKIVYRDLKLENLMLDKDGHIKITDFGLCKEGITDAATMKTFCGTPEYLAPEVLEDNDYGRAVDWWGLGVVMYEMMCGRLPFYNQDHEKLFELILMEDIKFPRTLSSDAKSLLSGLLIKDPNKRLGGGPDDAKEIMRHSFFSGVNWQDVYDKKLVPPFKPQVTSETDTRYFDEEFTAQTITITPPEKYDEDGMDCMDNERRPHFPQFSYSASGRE

[3] = system: AP1G1; assay: Kinobeads competition binding: AP1G1; parameters: species or system human; details: target AP1G1
[4] = system: ARAF; assay: Kinobeads competition binding: ARAF; parameters: species or system human; details: target ARAF
[5] = target: T2, AURKB (Homo sapiens, UniProt Q96GD4); assay: Kinobeads competition binding: AURKB; details: target AURKB
T2 construct: endogenous in cells

[6] = target: T3, BCR (Homo sapiens, UniProt P00519+P11274); assay: Kinobeads competition binding: BCR; details: target BCR
T3 construct: endogenous in cells
T3 sequence (P11274+P00519 fused): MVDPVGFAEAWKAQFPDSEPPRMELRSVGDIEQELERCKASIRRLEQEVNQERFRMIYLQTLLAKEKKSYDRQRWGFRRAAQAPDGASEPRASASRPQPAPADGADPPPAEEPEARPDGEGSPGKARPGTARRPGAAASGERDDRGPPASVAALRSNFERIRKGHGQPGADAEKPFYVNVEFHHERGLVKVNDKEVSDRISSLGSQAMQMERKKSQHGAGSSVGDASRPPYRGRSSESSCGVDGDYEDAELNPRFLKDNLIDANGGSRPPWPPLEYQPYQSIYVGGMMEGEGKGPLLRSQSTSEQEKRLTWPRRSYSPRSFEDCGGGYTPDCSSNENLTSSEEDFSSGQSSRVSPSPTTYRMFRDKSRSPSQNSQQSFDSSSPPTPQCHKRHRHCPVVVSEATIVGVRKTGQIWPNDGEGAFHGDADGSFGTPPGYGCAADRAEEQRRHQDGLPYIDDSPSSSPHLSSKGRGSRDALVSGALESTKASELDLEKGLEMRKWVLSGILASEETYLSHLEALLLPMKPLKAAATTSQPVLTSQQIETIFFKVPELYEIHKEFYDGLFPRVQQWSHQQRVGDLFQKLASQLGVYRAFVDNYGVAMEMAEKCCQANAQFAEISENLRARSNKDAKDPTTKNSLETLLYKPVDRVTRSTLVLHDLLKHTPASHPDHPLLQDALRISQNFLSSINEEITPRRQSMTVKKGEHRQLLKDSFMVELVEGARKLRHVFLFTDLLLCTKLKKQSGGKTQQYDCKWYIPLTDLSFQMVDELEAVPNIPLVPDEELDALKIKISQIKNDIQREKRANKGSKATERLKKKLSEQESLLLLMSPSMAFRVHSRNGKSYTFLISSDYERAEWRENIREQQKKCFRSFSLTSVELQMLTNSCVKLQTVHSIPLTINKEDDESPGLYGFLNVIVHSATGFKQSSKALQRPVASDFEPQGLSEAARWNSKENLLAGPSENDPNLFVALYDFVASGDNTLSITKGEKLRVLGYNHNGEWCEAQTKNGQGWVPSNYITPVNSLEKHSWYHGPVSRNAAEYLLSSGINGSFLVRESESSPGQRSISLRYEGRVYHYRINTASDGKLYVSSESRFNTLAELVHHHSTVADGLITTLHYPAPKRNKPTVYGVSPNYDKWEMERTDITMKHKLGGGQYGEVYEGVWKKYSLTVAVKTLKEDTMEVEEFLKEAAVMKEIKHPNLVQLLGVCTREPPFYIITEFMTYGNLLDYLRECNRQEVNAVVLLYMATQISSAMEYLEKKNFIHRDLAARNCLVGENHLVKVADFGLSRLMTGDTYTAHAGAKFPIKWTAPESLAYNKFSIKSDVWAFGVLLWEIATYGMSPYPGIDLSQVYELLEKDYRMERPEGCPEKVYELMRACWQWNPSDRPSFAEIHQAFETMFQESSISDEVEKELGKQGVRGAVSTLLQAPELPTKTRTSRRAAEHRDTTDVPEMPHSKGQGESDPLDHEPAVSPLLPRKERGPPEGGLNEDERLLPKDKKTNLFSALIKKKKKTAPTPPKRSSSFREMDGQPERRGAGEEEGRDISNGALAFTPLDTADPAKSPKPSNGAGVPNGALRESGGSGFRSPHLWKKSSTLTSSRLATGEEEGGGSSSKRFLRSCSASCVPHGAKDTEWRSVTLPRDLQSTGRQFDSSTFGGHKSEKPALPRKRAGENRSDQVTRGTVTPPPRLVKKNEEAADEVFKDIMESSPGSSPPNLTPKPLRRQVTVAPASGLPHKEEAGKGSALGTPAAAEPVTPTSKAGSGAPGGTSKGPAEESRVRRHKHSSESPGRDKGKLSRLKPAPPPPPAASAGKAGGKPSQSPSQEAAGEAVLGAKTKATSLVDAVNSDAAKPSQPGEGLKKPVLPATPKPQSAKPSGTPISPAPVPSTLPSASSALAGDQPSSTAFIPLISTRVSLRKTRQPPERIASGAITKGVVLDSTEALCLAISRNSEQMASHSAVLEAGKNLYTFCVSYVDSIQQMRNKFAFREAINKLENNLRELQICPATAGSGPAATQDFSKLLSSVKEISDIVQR
From the text: Supplement 41589_2023_1459_MOESM4_ESM.xlsx, sheet "CATDS matrix" | column: BCR

[7] = target: T4, BTK (Homo sapiens, UniProt Q06187); assay: Kinobeads competition binding: BTK; details: target BTK
T4 construct: endogenous in cells
T4 sequence (Q06187 whole entry): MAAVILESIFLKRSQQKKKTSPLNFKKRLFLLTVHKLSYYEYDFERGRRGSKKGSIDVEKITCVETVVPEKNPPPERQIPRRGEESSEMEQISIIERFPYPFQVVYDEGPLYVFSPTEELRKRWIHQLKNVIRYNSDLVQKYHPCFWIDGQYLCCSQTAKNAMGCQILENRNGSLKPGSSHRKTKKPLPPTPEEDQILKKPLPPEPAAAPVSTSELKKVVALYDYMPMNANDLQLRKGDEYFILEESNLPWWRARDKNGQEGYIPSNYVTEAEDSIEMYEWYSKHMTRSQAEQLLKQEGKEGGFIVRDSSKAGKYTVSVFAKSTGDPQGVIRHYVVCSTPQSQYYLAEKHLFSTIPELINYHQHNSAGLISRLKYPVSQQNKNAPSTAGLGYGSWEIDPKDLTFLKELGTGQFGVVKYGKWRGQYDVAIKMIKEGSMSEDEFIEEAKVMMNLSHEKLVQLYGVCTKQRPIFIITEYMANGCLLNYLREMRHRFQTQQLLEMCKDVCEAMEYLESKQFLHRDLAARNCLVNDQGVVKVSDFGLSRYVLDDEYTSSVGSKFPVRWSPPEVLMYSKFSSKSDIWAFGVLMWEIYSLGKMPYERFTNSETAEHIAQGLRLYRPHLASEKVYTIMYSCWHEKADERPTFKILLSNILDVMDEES
From the text: Supplement 41589_2023_1459_MOESM4_ESM.xlsx, sheet "CATDS matrix" | column: BTK

[8] = system: CDC42BPB; assay: Kinobeads competition binding: CDC42BPB; parameters: species or system human; details: target CDC42BPB
[9] = system: DDR1; assay: Kinobeads competition binding: DDR1; parameters: species or system human; details: target DDR1
[10] = target: T5, EPHA7 (Homo sapiens, UniProt Q15375); assay: Kinobeads competition binding: EPHA7; details: target EPHA7
T5 construct: endogenous in cells
From the text: Supplement 41589_2023_1459_MOESM4_ESM.xlsx, sheet "CATDS matrix" | column: EPHA7

[11] = target: T6, FER (Homo sapiens, UniProt P16591); assay: Kinobeads competition binding: FER; details: target FER
T6 construct: endogenous in cells
From the text: Supplement 41589_2023_1459_MOESM4_ESM.xlsx, sheet "CATDS matrix" | column: FER

[12] = target: T7, FRK (Homo sapiens, UniProt P42685); assay: Kinobeads competition binding: FRK; details: target FRK
T7 construct: endogenous in cells
T7 sequence (P42685 whole entry): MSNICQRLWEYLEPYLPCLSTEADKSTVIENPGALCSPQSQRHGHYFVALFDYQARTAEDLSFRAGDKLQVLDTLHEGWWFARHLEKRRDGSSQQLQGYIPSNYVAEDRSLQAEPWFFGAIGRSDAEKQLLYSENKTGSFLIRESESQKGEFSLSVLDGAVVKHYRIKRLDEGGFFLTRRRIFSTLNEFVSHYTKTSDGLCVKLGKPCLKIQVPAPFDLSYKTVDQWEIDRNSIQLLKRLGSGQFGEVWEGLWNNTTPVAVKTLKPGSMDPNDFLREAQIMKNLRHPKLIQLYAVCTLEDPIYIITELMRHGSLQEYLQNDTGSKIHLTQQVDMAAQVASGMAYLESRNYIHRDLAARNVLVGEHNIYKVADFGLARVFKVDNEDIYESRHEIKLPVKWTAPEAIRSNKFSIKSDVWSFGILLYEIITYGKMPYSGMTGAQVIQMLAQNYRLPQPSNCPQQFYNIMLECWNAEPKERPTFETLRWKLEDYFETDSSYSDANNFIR
From the text: Supplement 41589_2023_1459_MOESM4_ESM.xlsx, sheet "CATDS matrix" | column: FRK

[13] = target: T8, HCK (Homo sapiens, UniProt P08631); assay: Kinobeads competition binding: HCK; details: target HCK
T8 construct: endogenous in cells
T8 sequence (P08631 whole entry): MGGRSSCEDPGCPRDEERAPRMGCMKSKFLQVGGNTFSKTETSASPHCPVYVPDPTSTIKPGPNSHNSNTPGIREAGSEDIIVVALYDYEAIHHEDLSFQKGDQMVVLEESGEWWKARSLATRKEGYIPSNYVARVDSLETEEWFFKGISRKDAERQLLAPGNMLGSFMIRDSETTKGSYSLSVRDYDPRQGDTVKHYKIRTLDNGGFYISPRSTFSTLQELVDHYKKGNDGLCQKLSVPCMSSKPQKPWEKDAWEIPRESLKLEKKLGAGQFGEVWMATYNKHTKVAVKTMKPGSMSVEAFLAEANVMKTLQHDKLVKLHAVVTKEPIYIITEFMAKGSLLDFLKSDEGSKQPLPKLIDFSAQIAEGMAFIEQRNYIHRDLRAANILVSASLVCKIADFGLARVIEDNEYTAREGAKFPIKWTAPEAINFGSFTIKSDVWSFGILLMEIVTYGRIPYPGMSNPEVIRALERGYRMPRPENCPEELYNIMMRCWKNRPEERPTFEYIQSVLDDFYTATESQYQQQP
From the text: Supplement 41589_2023_1459_MOESM4_ESM.xlsx, sheet "CATDS matrix" | column: HCK

[14] = system: IRAK1; assay: Kinobeads competition binding: IRAK1; parameters: species or system human; details: target IRAK1
[15] = system: LIMK2; assay: Kinobeads competition binding: LIMK2; parameters: species or system human; details: target LIMK2
[16] = system: MAPK10; assay: Kinobeads competition binding: MAPK10; parameters: species or system human; details: target MAPK10
[17] = system: MAPK8; assay: Kinobeads competition binding: MAPK8; parameters: species or system human; details: target MAPK8
[18] = Kinobeads two-dose, read-out: Kdapp PKN3

PKN3, sequence (Q6P5Z2 whole entry): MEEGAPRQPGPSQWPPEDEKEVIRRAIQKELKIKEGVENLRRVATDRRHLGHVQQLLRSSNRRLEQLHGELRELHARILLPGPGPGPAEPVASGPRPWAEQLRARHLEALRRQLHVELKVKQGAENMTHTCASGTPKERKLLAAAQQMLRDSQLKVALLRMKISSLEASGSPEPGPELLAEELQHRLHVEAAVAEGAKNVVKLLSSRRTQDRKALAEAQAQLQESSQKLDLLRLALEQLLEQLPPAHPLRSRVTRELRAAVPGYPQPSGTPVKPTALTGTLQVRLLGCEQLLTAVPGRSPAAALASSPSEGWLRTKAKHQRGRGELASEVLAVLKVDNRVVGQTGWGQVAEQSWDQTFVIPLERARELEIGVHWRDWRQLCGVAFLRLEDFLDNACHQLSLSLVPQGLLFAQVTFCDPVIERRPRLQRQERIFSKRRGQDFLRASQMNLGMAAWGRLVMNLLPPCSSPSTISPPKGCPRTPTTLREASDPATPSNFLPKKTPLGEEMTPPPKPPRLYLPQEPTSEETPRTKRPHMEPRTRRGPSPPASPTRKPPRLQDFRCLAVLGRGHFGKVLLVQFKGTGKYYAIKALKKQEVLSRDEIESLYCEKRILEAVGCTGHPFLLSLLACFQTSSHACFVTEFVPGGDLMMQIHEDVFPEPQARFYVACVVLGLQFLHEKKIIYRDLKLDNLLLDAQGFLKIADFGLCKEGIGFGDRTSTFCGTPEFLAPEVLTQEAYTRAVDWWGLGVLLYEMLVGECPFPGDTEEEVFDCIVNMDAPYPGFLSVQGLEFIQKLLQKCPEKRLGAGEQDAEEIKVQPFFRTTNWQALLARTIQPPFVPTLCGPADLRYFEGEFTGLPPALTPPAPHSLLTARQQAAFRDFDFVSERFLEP

C[C@]12O[C@H](C[C@]1(O)CO)n1c3ccccc3c3c4c(c5c6ccccc6n2c5c31)CNC4=O [Lestaurtinib]
potency estimated from few doses ([1]; read-out: Lestaurtinib Drugmatrix value, Gene Name PKN3, one column per experiment number and replicate (R1-R3)): 755 nM

NCc1ccc(-c2nc(-c3ccncc3)c(-c3ccc(Cl)c(O)c3)[nH]2)cc1 [SB-476429-A]
potency estimated from few doses ([1]; read-out: Kdapp PKN3): 36 nM
CATDSPKN3 [1]: 0.21

Nc1ncnc2[nH]c(-c3ccccc3)nc12 [AH5015_KCGS]
CATDS [2]: 0
CATDS [3]: 0
CATDS [4]: 0
CATDS [5]: 0
CATDS [6]: 0.0268
CATDS [7]: 0
CATDS [8]: 0
CATDS [9]: 0
CATDS [10]: 0
CATDS [11]: 0.03222
CATDS [12]: 0
CATDS [13]: 0
CATDS [14]: 0
CATDS [15]: 0
CATDS [16]: 0
CATDS [17]: 0

CCc1cc2c(cc1N1CCC(N3CCOCC3)CC1)C(C)(C)c1[nH]c3cc(C#N)ccc3c1C2=O [Alectinib]
CATDS [2]: 0
CATDS [3]: 0
CATDS [4]: 0
CATDS [5]: 0
CATDS [6]: 0
CATDS [7]: 0
CATDS [8]: 0
CATDS [9]: 0
CATDS [10]: 0
CATDS [11]: 0
CATDS [12]: 0
CATDS [13]: 0
CATDS [14]: 0
CATDS [15]: 0
CATDS [16]: 0
CATDS [17]: 0

CCN1CCN(Cc2ccc(Nc3ncc(F)c(-c4cc(F)c5nc(C)n(C(C)C)c5c4)n3)nc2)CC1 [Abemaciclib]
CATDS [2]: 0
CATDS [3]: 0
CATDS [4]: 0
CATDS [5]: 0
CATDS [6]: 0
CATDS [7]: 0
CATDS [8]: 0
CATDS [9]: 0
CATDS [10]: 0
CATDS [11]: 0
CATDS [12]: 0
CATDS [13]: 0
CATDS [14]: 0.02986
CATDS [15]: 0
CATDS [16]: 0
CATDS [17]: 0

CN(C)C/C=C/C(=O)Nc1cc2c(Nc3ccc(F)c(Cl)c3)ncnc2cc1O[C@H]1CCOC1 [Afatinib]
CATDS [3]: 0
CATDS [4]: 0
CATDS [6]: 0
CATDS [7]: 0
CATDS [10]: 0
CATDS [11]: 0
CATDS [12]: 0
CATDS [13]: 0

CCn1c(-c2nonc2N)nc2c(C#CC(C)(C)O)nc(OCCN)cc21 [GSK902056A]
potency estimated from few doses [1, 18]: 1 nM
CATDSPKN3 [1]: 0.93

N#CC1(c2ccc(NC(=O)c3cccnc3NCc3ccncc3)cc2)CCCC1 [Apatinib]
CATDS [2]: 0
CATDS [3]: 0
CATDS [4]: 0
CATDS [5]: 0
CATDS [6]: 0
CATDS [7]: 0
CATDS [8]: 0
CATDS [9]: 0
CATDS [10]: 0
CATDS [11]: 0
CATDS [12]: 0
CATDS [13]: 0
CATDS [14]: 0
CATDS [15]: 0
CATDS [16]: 0
CATDS [17]: 0

CCn1c(-c2nonc2N)nc2c(C#CC(C)(C)O)nc(OCCNC)cc21 [GSK949675A]
potency estimated from few doses [1, 18]: 2.5 nM
CATDSPKN3 [1]: 0.86
